Source: PubChem BioAssay (NCI)
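Growth conditions: 96-well plates. Treatment: test compound, 48 hours, 5 concentrations. Analysis: linear interpolation between bracketing concentrations; unreached endpoints set to highest concentration. GI50 marks 50% less growth. At the TGI there is no net growth.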

How the values were obtained:
Test in all cases: NCI anticancer screen, dose series, 48 h
A498 renal = tested on: A498 renal
A549 NSCLC = tested on: A549 NSCLC
HL-60(TB) leukemia = tested on: HL-60(TB) leukemia
HOP-92 NSCLC = tested on: HOP-92 NSCLC
LOX IMVI melanoma = tested on: LOX IMVI melanoma
MALME-3M melanoma = tested on: MALME-3M melanoma
RPMI-8226 leukemia = tested on: RPMI-8226 leukemia
SF-268 CNS = tested on: SF-268 CNS
SF-539 CNS = tested on: SF-539 CNS
SNB-19 CNS = tested on: SNB-19 CNS

Row | Compound | GI50 (A498 renal) | TGI (A498 renal) | GI50 (A549 NSCLC) | TGI (A549 NSCLC) | GI50 (HL-60(TB) leukemia) | TGI (HL-60(TB) leukemia) | GI50 (HOP-92 NSCLC) | TGI (HOP-92 NSCLC) | GI50 (LOX IMVI melanoma) | TGI (LOX IMVI melanoma) | GI50 (MALME-3M melanoma) | TGI (MALME-3M melanoma) | GI50 (RPMI-8226 leukemia) | TGI (RPMI-8226 leukemia) | GI50 (SF-268 CNS) | TGI (SF-268 CNS) | GI50 (SF-539 CNS) | TGI (SF-539 CNS) | GI50 (SNB-19 CNS) | TGI (SNB-19 CNS)
1 | CC1(C)OC2C(COS(N)(=O)=O)SC(n3cnc4cncnc43)C2O1 (stereo not given) | > 100 µM | > 100 µM | > 100 µM | > 100 µM | > 100 µM | > 100 µM | > 100 µM | > 100 µM | > 100 µM | > 100 µM | > 100 µM | > 100 µM | > 100 µM | > 100 µM | > 100 µM | > 100 µM | > 100 µM | > 100 µM | > 100 µM | > 100 µM
2 | COc1ccc(OC)c2c3c(ccc12)C(c1ccccc1)OC3=O (stereo not given) |  | > 100 µM |  | > 100 µM |  | > 100 µM |  |  |  | > 100 µM |  | > 100 µM |  | > 100 µM |  | > 100 µM |  |  |  | > 100 µM
3 | S=c1nc(-c2ccnc(-c3nc(=S)[nH][nH]3)c2)[nH][nH]1 |  | > 100 µM |  | > 100 µM |  | > 100 µM |  |  |  | > 100 µM |  | > 100 µM |  | > 100 µM |  | > 100 µM |  | > 100 µM |  | > 100 µM
4 | O=C(Cc1ccccc1)NN1C(=O)/C(=C\c2ccc(O)cc2)SC1=Nc1ccccc1 |  | > 100 µM |  | > 100 µM |  | > 100 µM |  | > 100 µM |  |  |  |  |  | > 100 µM |  | > 100 µM |  | > 100 µM |  | > 100 µM
5 | CC1(C)CC[C@]2(C(N)=O)CC[C@]3(C)C(=CC[C@@H]4[C@@]5(C)C/C(=C/c6ccncc6)C(=O)C(C)(C)[C@@H]5CC[C@]43C)[C@@H]2C1 | 1.7 µM | 3.38 µM | 2.35 µM | 8.22 µM | 1.98 µM | 4.59 µM | 1.76 µM | 4.77 µM |  |  | 1.71 µM | 3.27 µM | 1.73 µM | 4.44 µM | 2.15 µM | 5.49 µM | 1.81 µM | 3.34 µM | 1.59 µM | 3.24 µM
6 | COc1ccc(CCN=C2CCC(C(=O)NCCc3ccc(OC)c(OC)c3)N2)cc1OC (stereo not given) |  | > 100 µM |  | > 100 µM |  | > 100 µM |  | > 100 µM |  | > 100 µM |  | > 100 µM |  | > 100 µM |  | > 100 µM |  |  |  | > 100 µM
7 | COc1cc([N+](=O)[O-])c2ncccc2c1[N+](=O)[O-] | 12.3 µM | 32 µM | 17.8 µM | 34.5 µM | 3.39 µM | > 100 µM |  |  | 2.31 µM | 8.29 µM |  |  | 6.15 µM | 26.5 µM | 3.72 µM | 15.3 µM | 3.61 µM | 13.6 µM | 15.9 µM | 30.8 µM
8 | CC1CC2(C)CC(=O)C1C1C(=O)N(CCN3CCCCC3)C(=O)C12 (stereo not given) | > 100 µM | > 100 µM | > 100 µM | > 100 µM | > 100 µM | > 100 µM | > 100 µM | > 100 µM | > 100 µM | > 100 µM | > 100 µM | > 100 µM |  |  | > 100 µM | > 100 µM | > 100 µM | > 100 µM | > 100 µM | > 100 µM
9 | CC1OC(OC2CCC3(C=O)C4CCC5(C)C(C6=CC(=O)OC6)CCC5(O)C4CCC3(O)C2)C(O)C(O)C1O (stereo not given) |  | 0.000154 µM |  |  |  | 0.000107 µM |  | 0.000102 µM |  | 6.73e-05 µM |  | 8.23e-05 µM |  | 0.000124 µM |  | 4.11e-05 µM |  | 5.65e-05 µM |  | 0.0657 µM
